{"source": "patent US4822823A", "about": "“Aqueous preparation and method of preparation thereof” (priority 1986, dated 1989)", "key": {"[1]": {"settings": "for enhancement of solubility of compound (A) (in words): phosphoric acid buffer pH 6.0", "method": "The dissolution-assisting agents used as a control are β-cyclodextrin, γ-cyclodextrin, polyvinyl pyrrolidone (hereinbelow abbreviated as PVP), polyoxyethylene monostearate (hereinbelow abbreviated as MYS-40), polyoxyethylene sorbitan monooleate (hereinbelow abbreviated as TO-80), and polyoxyethylene cured castor oil (hereinbelow abbreviated as HCO-40, HCO-60).\nSolubility was determined by dissolving the respective dissolution-assisting agents into 0.2 mole of phosphoric acid buffer solution (Na2 HPO4 NaH2 PO4, pH 6.0), then adding excessive amount of compound (A) and shaking the mixed solution at room temperature (15° C.~20° C.) for 5 days, centrifuging the solution, filtering the supernatant by use of cotton stoppers, and subsequently measuring the concentration of compound (A) contained in the filtrate with a high-speed liquid chromatography."}, "[2]": {"tested_on": "experimental allergic asthma", "settings": "IgE, rats; cited from earlier work"}, "[3]": {"settings": "25° C.; cited from earlier work"}, "[4]": {"tested_on": "experimental allergic asthma", "settings": "IgG and IgE, Guinea pigs; cited from earlier work"}, "[5]": {"tested_on": "5-riboxygenase", "settings": "cited from earlier work"}, "[6]": {"experiment": "Stability test of compound (A) with α-cyclodextrin at varying pHs", "format": "physicochemical", "method": "Stability test of compound (A) was performed in the following formula at varying pHs: […]\nPurified Water amount totaling 1000 ml\nNote: The data are represented in terms of persistence rate (%)."}, "[7]": {"tested_on": "production of SRS-A or LTB4", "settings": "cited from earlier work"}}, "note": "Entries after “also recorded” stand apart in the source; their conditions may differ. Like-named read-outs stand apart in the source and are kept apart here."}
{"compound": "OC[C@H]1O[C@@H]2O[C@H]3[C@H](O)[C@@H](O)[C@@H](O[C@H]4[C@H](O)[C@@H](O)[C@@H](O[C@H]5[C@H](O)[C@@H](O)[C@@H](O[C@H]6[C@H](O)[C@@H](O)[C@@H](O[C@H]7[C@H](O)[C@@H](O)[C@@H](O[C@H]8[C@H](O)[C@@H](O)[C@@H](O[C@H]9[C@H](O)[C@@H](O)[C@@H](O[C@H]1[C@H](O)[C@H]2O)O[C@@H]9CO)O[C@@H]8CO)O[C@@H]7CO)O[C@@H]6CO)O[C@@H]5CO)O[C@@H]4CO)O[C@@H]3CO", "note": "[γ-cyclodextrin, reference compound]", "values": [{"measurement": "enhancement of solubility of compound (A) (in words)", "setting": "[1]", "result": "do not show any intended effect; also recorded: can hardly enhance the solubility"}]}
{"compound": "CC1=C(C)C(=O)C(CCCCC#CCCCC#CCO)=C(C)C1=O", "note": "[Compound (A)]", "values": [{"measurement": "effect on experimental allergic asthma (in words)", "setting": "[2]", "result": "showing experimental allergic asthma"}, {"measurement": "solubility to water", "setting": "[3]", "result": "less than 10 ng/ml"}, {"measurement": "effect on experimental allergic asthma (in words)", "setting": "[4]", "result": "showing experimental allergic asthma"}, {"measurement": "5-riboxygenase inhibition (in words)", "setting": "[5]", "result": "selective inhibitor for 5-riboxygenase"}, {"measurement": "persistence rate", "setting": "[6]; 60° C.-3 days, pH 4.0, with α-cyclodextrin", "result": 101.2, "unit": "%"}, {"measurement": "persistence rate", "setting": "[6]; 60° C.-3 days, pH 5.0, with α-cyclodextrin", "result": 102.6, "unit": "%"}, {"measurement": "persistence rate", "setting": "[6]; 60° C.-3 days, pH 6.0, with α-cyclodextrin", "result": 102.5, "unit": "%"}, {"measurement": "persistence rate", "setting": "[6]; 60° C.-3 days, pH 7.0, with α-cyclodextrin", "result": 93.3, "unit": "%"}, {"measurement": "persistence rate", "setting": "[6]; 60° C.-5 days, pH 4.0, with α-cyclodextrin", "result": 102.5, "unit": "%"}, {"measurement": "persistence rate", "setting": "[6]; 60° C.-5 days, pH 5.0, with α-cyclodextrin", "result": 99.5, "unit": "%"}, {"measurement": "persistence rate", "setting": "[6]; 60° C.-5 days, pH 6.0, with α-cyclodextrin", "result": 102.8, "unit": "%"}, {"measurement": "persistence rate", "setting": "[6]; 60° C.-5 days, pH 7.0, with α-cyclodextrin", "result": 87.6, "unit": "%"}, {"measurement": "persistence rate", "setting": "[6]; Room temp.-5 days, pH 4.0, with α-cyclodextrin", "result": 99.6, "unit": "%"}, {"measurement": "persistence rate", "setting": "[6]; Room temp.-5 days, pH 5.0, with α-cyclodextrin", "result": 103.0, "unit": "%"}, {"measurement": "persistence rate", "setting": "[6]; Room temp.-5 days, pH 6.0, with α-cyclodextrin", "result": 99.4, "unit": "%"}, {"measurement": "persistence rate", "setting": "[6]; Room temp.-5 days, pH 7.0, with α-cyclodextrin", "result": 99.1, "unit": "%"}, {"measurement": "inhibition of production of SRS-A or LTB4 (in words)", "setting": "[7]", "result": "inhibit the production of SRS-A or LTB4"}]}
{"compound": "OC[C@H]1O[C@@H]2O[C@H]3[C@H](O)[C@@H](O)[C@@H](O[C@H]4[C@H](O)[C@@H](O)[C@@H](O[C@H]5[C@H](O)[C@@H](O)[C@@H](O[C@H]6[C@H](O)[C@@H](O)[C@@H](O[C@H]7[C@H](O)[C@@H](O)[C@@H](O[C@H]1[C@H](O)[C@H]2O)O[C@@H]7CO)O[C@@H]6CO)O[C@@H]5CO)O[C@@H]4CO)O[C@@H]3CO", "note": "[α-cyclodextrin]", "values": [{"measurement": "solubility-enhancing effect relative to phosphoric acid buffer", "setting": "[1]; compound (A), versus phosphoric acid buffer having pH 6", "result": 1000, "unit": "times"}, {"measurement": "enhancement of solubility of compound (A) (in words)", "setting": "[1]", "result": "remarkably enhances the solubility of compound (A) without impairing its stability; also recorded: highly advantageous effect; also recorded: prominent enhancement of solubility"}]}
{"compound": "dimethyl-β-cyclodextrin", "values": [{"measurement": "solubility-enhancing effect relative to phosphoric acid buffer", "setting": "[1]; pH 6", "result": 1000, "unit": "times"}]}
